System: subjects with T2DM and renal impairment
Assay: Phase 2a: continuous glucose monitoring (CGM)
Type: in vivo, human
Conditions: ITT
Procedure: Cotadutide was titrated from 50 μg up to 300 μg and administered once daily by subcutaneous (SC) injection over 32 days.
Cotadutide was administered at 50 μg once daily for 4 days, followed by 100 μg daily for 7 days, 200 μg daily for 7 days, and 300 μg daily for 14 days (n=20). Placebo was administered one daily for 32 days (n=20). Cotadutide and placebo were administered in the morning. Dosing commenced following predose baseline vital signs, blood tests (including HbA1c), an electrocardiogram (ECG), body weight measurement, and bioimpedance spectroscopy (BIS). Subjects then returned for daily dosing or remained overnight locally until Day 5, and thereafter, had visits at weekly intervals until a maintenance dose of 300 μg was established. Thus, Cotadutide or placebo was administered at the study site by study personal for the first four doses and on site on Days 5, 12, 19, and 32. At all other times, subjects preformed dosing at home.
A Freestyle Libre® Pro CGM device was used to measure interstitial glucose levels. […] Data generated by CGM was used at visits to adjust insulin doses and other treatments.
The CGM sensor, which is a small plastic circular device of 35 mm diameter and 5 mm depth, was applied to the back of the upper arm. Subjects wore the CGM sensor continuously up until the time of a sensor change, which was to occur within 14 days, and they were advised that they could bathe and shower, and swim in up to 3 m depth for up to 30 minutes while wearing the CGM sensor. When the CGM sensor was removed, a new CGM sensor could be reapplied, ideally close to the original site, but with the subject's site preference taken into account. CGM sensors were single-use only.
If a subject was unable to tolerate wearing the CGM sensor for the entire duration of the study, the sensor was removed; but the subject was to remain in the study with or without continued CGM and could instead be instructed to monitor capillary plasma glucose measurements four times per day (before meals and before bedtime) and record these levels in the diary provided.
Subjects underwent continuous glucose monitoring (CGM) starting from Day −14 to Day 40 (±5 days), with sensor changes within 14-day intervals. CGM readings were used to analyze change in average CGM glucose and glucose AUC7 d, coefficient of variation as a marker of glycemic variability, and time spent in target glucose range and hypoglycemia, to enable comparison across different dose levels.

[1] = 200 μg (Days 12 to 18), baseline Days −8 to −2, ANCOVA
[2] = 200 μg (Days 12 to 18), baseline Days −8 to −2
[3] = 200 μg Dose (Days 12 to 18), Insulin Dose < 20 U/day
[4] = 200 μg Dose (Days 12 to 18), Insulin Dose ≥ 20 U/day
[5] = 200 μg Dose (Days 12 to 18), Total

CCCCCCCCCCCCCCCC(=O)N[C@@H](CCC(=O)NCCCC[C@H](NC(=O)[C@H](CC(=O)O)NC(=O)[C@H](CO)NC(=O)[C@@H](NC(=O)[C@H](Cc1ccccc1)NC(=O)[C@@H](NC(=O)CNC(=O)[C@H](CCC(N)=O)NC(=O)[C@H](CO)NC(=O)[C@@H](N)Cc1c[nH]cn1)[C@@H](C)O)[C@@H](C)O)C(=O)N[C@@H](CO)C(=O)N[C@@H](CCC(=O)O)C(=O)N[C@@H](Cc1ccc(O)cc1)C(=O)N[C@@H](CC(C)C)C(=O)N[C@@H](CC(=O)O)C(=O)N[C@@H](CO)C(=O)N[C@@H](CCC(=O)O)C(=O)N[C@@H](CCCNC(=N)N)C(=O)N[C@@H](C)C(=O)N[C@@H](CCCNC(=N)N)C(=O)N[C@@H](CC(=O)O)C(=O)N[C@@H](Cc1ccccc1)C(=O)N[C@H](C(=O)N[C@@H](C)C(=O)N[C@@H](Cc1c[nH]c2ccccc12)C(=O)N[C@@H](CC(C)C)C(=O)N[C@@H](CCC(=O)O)C(=O)N[C@@H](C)C(=O)NCC(=O)NCC(=O)O)C(C)C)C(=O)O [Cotadutide]
Time in target range, Difference in LS Mean Change (vs Placebo) (100 μg Dose (Days 5 to 11), Total): 22.74% | Average CGM Glucose Over 7-Day Periods, End of Dosing Period, Mean (200 μg (Days 12 to 18)): 131.724 mg/dL | Average CGM Glucose Over 7-Day Periods, End of Dosing Period, Median (200 μg (Days 12 to 18)): 121.570 mg/dL | Percentage of time CGM Glucose in Hyperglycemia (>180 mg/dL), End of Dosing Period, Mean (200 μg (Days 12 to 18)): 14.77% | Percentage of time CGM Glucose in Hyperglycemia (>180 mg/dL), End of Dosing Period, Median (200 μg (Days 12 to 18)): 6.61% | Average CGM Glucose Over 7-Day Periods, Difference in LS Mean Change (vs Placebo) [1]: -40.34 mg/dL | Average CGM Glucose Over 7-Day Periods, LS Mean Change [1]: -30.66 mg/dL | Percentage of time CGM Glucose in Clinically Significant Hypoglycemia (<54 mg/dL), Difference in LS Mean Change (vs Placebo) [1]: 0.43% | Percentage of time CGM Glucose in Clinically Significant Hypoglycemia (<54 mg/dL), LS Mean Change [1]: −0.21% | Percentage of time CGM Glucose in Hyperglycemia (>180 mg/dL), Difference in LS Mean Change (vs Placebo) [1]: −25.47% | Percentage of time CGM Glucose in Hyperglycemia (>180 mg/dL), LS Mean Change [1]: −19.24% | Percentage of time CGM Glucose in Hypoglycemia (<70 mg/dl), Difference in LS Mean Change (vs Placebo) [1]: 0.86% | Percentage of time CGM Glucose in Hypoglycemia (<70 mg/dl), LS Mean Change [1]: −0.14% | Average CGM Glucose Over 7-Day Periods, Change from Baseline to End of Dosing Period, Mean [2]: -30.668 mg/dL | Average CGM Glucose Over 7-Day Periods, Change from Baseline to End of Dosing Period, Median [2]: -32.533 mg/dL | Percentage of time CGM Glucose in Hyperglycemia (>180 mg/dL), Change from Baseline to End of Dosing Period, Mean [2]: −19.36% | Percentage of time CGM Glucose in Hyperglycemia (>180 mg/dL), Change from Baseline to End of Dosing Period, Median [2]: −17.72% | Time in target range, LS Mean Change (200 μg Dose (Days 12 to 18), ANCOVA, Insulin Dose < 20 U/day): 21.04% | Time in target range, LS Mean Change (200 μg Dose (Days 12 to 18), ANCOVA, Insulin Dose ≥ 20 U/day): 12.92% | Time in target range, LS Mean Change (200 μg Dose (Days 12 to 18), ANCOVA, Total): 15.62% | Percentage of Time CGM Glucose Within Target Range (70-180 mg/dL), Mean [3]: 89.01% | Percentage of Time CGM Glucose Within Target Range (70-180 mg/dL), Median [3]: 96.38% | Time in target range, Change from Baseline (Days −8 to −2), Mean [3]: 24.48% | Time in target range, Change from Baseline (Days −8 to −2), Median [3]: 23.79% | Time in target range, Difference in LS Mean Change (vs Placebo) [3]: 25.01% | Percentage of Time CGM Glucose Within Target Range (70-180 mg/dL), Mean [4]: 73.53% | Percentage of Time CGM Glucose Within Target Range (70-180 mg/dL), Median [4]: 79.59% | Time in target range, Change from Baseline (Days −8 to −2), Mean [4]: 11.20% | Time in target range, Change from Baseline (Days −8 to −2), Median [4]: 11.27% | Time in target range, Difference in LS Mean Change (vs Placebo) [4]: 18.72% | Percentage of Time CGM Glucose Within Target Range (70-180 mg/dL), Mean [5]: 78.69% | Percentage of Time CGM Glucose Within Target Range (70-180 mg/dL), Median [5]: 80.69% | Time in target range, Change from Baseline (Days −8 to −2), Mean [5]: 15.39% | Time in target range, Change from Baseline (Days −8 to −2), Median [5]: 14.44% | Time in target range, Difference in LS Mean Change (vs Placebo) [5]: 20.96%
